From ChEMBL document CHEMBL1126509, “Trisnorsqualene methyl hydroxylamine: a potent dual inhibitor of mammalian squalene epoxidase and oxidosqualene cyclase” (Bioorg Med Chem Lett, 1993)

Columns and labels:
[1] = Inhibitory concentration at which 50% decrease in the activity of Squalene epoxidase and Oxidosqualene cyclase in pig liver microsomes; parameters: species or system Sus scrofa, Microsome
[2] = Inhibitory concentration at which 50% decrease in the activity of Squalene epoxidase and Oxidosqualene cyclase in pig liver microsomes; NI means no inhibition; parameters: species or system Sus scrofa, Microsome
[3] = Inhibitory concentration at which 50% decrease in the activity of Squalene epoxidase in pig liver microsomes; NI means no inhibition

IC50 [1] | IC50 [2] | IC50 [3] | Structure (SMILES)
> 400 µM | – | – | CC(C)=CCC/C(C)=C/CC/C(C)=C/CC/C=C(\C)CC/C=C(\C)CC/C=C/[N+](=O)[O-]
– | Not Active | Not Active | CC(C)=CCC/C(C)=C/CC/C(C)=C/CC/C=C(\C)CC/C=C(\C)CC/C=N/O
200 µM | – | – | CC(C)=CCC/C(C)=C/CC/C(C)=C/CC/C=C(\C)CC/C=C(\C)CCC(O)C[N+](=O)[O-] (stereo not given)
5 µM | – | – | CC(C)=CCC/C(C)=C/CC/C(C)=C/CC/C=C(\C)CC/C=C(\C)CCCN(C)O
